Test results published in patent publication US20200405603A1, “COMPOSITIONS AND METHODS FOR TREATING SKIN CONDITIONS USING INFRARED LIGHT AND RESORCINOLS” (Johnson & Johnson Consumer Inc., priority 2019, published 2020).

Tested on: lamin b1 (LMNB1) gene expression
Experiment: lamin B1 (LMNB1) gene expression assay (qPCR) in skin equivalents, with TNF-α to simulate photoaged skin
Format: cell-based, human
Protocol: The effects of IR light, hexyl resorcinol (HR), and combinations thereof on lamin B1 gene expression in the presence of TNF-α was tested as follows. TNF-α is known to play a primary role in the inflammation process upon ultraviolet (UV) irradiation and is stimulated by UVB.
Three human full-thickness skin equivalents (MatTek, Ashland, Mass.) were used for each treatment. The skin equivalents were treated with one of the following: (i) 100 ng/ml TNF-α in a medium (1× phenol-red free Hank's buffered saline solution (HBSS), (ii) a placebo formulation, (iii) a hexyl resorcinol formulation containing 0.5 weight percent hexyl resorcinol (HR) in the placebo formulation, (iv) infrared (IR) light (wavelength 830 nm) at 0.5 mW/cm^2 for 10 min (i.e. fluence at 0.3 J/cm^2), or (iv) combinations of these. TNF-α was used to simulate photoaged skin.
The placebo formulation contained the ingredients in Table 1. The hexyl resorcinol formulation contained the same ingredients plus 0.5 wt % hexyl resorcinol.
For the combination treatments, the formulations were first topically applied to the skin equivalents and left to stand for two hours. Next, the skin equivalents were irradiated with the IR light. Then the skin equivalents were incubated with or without 100 ng/ml TNF-α in the phenol-red-free medium for 24 hours.
Afterwards, the skin equivalents were collected in RNAlater solution (ThermoFisher Scientific, Bridgewater, N.J., USA) for RNA purification. The total RNAs were purified using a Qiagen RNeasy kit (Valencia, Calif., USA) following the manufacturer's instructions. RNA concentration was assessed using a Nanodrop 2000 spectrophotometer (ThermoFisher Scientific, Bridgewater, N.J., USA). Complementary DNA (cDNA) was performed using a High Capacity cDNA kit (ThermoFisher Scientific, Bridgewater, N.J., USA). TaqMan® gene expression assays for lamin b1 (LMNB1) and TATA-Box Binding Protein (TBP) and TaqMan® gene expression master mix from ThermoFisher Scientific (Bridgewater, N.J., USA) were used. Realtime polymerase chain reactions (qPCRs) of each treatment were performed using 5 ul of the 15 ul mixture of cDNAs pooled from three equivalent tissue replicates (i.e. mixing 5 ul of cDNA from each equivalent replicate). qPCRs were performed using a QuantStudio™ 7 Flex System (ThermoFisher Scientific, Bridgewater, N.J., USA). The RQ (relative quantitation) was calculated using the formula 2^-ΔΔCt.
The effects of red light (wavelength 640 nm, 0.3 J/cm^2) and HR on lamin B1 gene expression in the presence of TNF-α was tested using the same method as Example 1.

[1] = Example 2, treatment alone (no light, no other treatment)
[2] = treatment alone (no light, no other treatment), human full-thickness skin equivalents

Row | Compound | Induced LMNB1 (RQ) [1] [RQ] | Induced LMNB1 vs Untreated Control (RQ fold changes) [1] [RQ fold changes] | Difference of Induced LMNB1 vs Untreated Control (RQ fold changes) [2] [RQ fold changes] | LMNB1 Induction (RQ) [2] [RQ] | change in lamin B1 gene expression (combination with red light)
1 | TNF-α | 1.55 | 0.55 | 0.55 | 1.55 | –
2 | CCCCCCc1ccc(O)cc1O [hexyl resorcinol, 4-hexylresorcinol] | – | – | – | – | no substantial change
